Measurements taken from patent US8202862B2, “Substituted piperidines” (Bayer Intellectual Property GmbH, priority 2009, dated 2012).

Experiments:
[1] = molecular target: T1, human protease activated receptor 1 (PAR1) (Homo sapiens, UniProt P25116); assay: Cellular functional in vitro test (PAR1 test cell, aequorin luminescence); assay type: cell-based; conditions: HEK293-derived PAR1 test cell; PAR1 agonist at EC50; calcium/aequorin luminescence
T1 construct: the cell stably expresses the endogenous human PAR1 receptor; endogenous in cells; host or cells: recombinant HEK293-derived cell line; only the mitochondrial aequorin is recombinant
T1 sequence (P25116 22-425): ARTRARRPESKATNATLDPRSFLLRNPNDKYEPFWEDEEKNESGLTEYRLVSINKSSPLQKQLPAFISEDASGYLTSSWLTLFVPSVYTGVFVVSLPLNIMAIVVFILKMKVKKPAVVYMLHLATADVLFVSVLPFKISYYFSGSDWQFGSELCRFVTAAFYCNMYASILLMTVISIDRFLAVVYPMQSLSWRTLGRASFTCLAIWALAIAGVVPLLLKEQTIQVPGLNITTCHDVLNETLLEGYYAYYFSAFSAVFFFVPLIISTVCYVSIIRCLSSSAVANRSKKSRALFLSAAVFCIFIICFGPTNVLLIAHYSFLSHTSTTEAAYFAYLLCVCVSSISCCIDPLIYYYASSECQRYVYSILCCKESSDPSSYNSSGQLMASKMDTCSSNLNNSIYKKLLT
Source text: Cellular Functional in vitro Test
A recombinant cell line is used to identify […] of the human protease activated receptor 1 (PAR1) and to quantify the activity of the substances described herein. The cell is originally derived from a human embryonal kidney cell (HEK293; ATCC: American Type Culture Collection, Manassas, Va. 20108, U.S.A.). The test cell line constitutively expresses a modified form of the calcium-sensitive photoprotein aequorin which, after reconstitution with the cofactor coelenterazine, emits light when the free calcium concentration in the inner mitochondrial compartment is increased (Rizzuto R, Simpson A W, Brini M, Pozzan T.; Nature 1992, 358, 325-327). Additionally, the cell stably expresses the endogenous human PAR1 receptor and the endogenous purinergic receptor P2Y2. The resulting PAR1 test cell responds to stimulation of the endogenous PAR1 or P2Y2 receptor with an intracellular release of calcium ions, which can be quantified through the resulting aequorin luminescence with a suitable luminometer (Milligan G, Marshall F, Rees S, Trends in Pharmacological Sciences 1996, 17, 235-237).
For the testing of the substance specificity, the effect thereof after activation of the endogenous PAR1 receptor is compared with the effect after activation of the endogenous purinergic P2Y2 receptor which utilizes the same intracellular signal path.
Test procedure: The cells are plated out two days (48 hours) before the test in culture medium (DMEM F12, supplemented with 10% FCS, 2 mM glutamine, 20 mM HEPES, 1.4 mM pyruvate, 0.1 mg/ml gentamycin, 0.15% sodium bicarbonate; BioWhittaker Cat. # BE04-687Q; B-4800 Verviers, Belgium) in 384-well microtitre plates and kept in a cell incubator (96% atmospheric humidity, 5% v/v CO2, 37° C.). On the day of the test, the culture medium is replaced by a Tyrode's solution (in mM: 140 sodium chloride, 5 potassium chloride, 1 magnesium chloride, 2 calcium chloride, 20 glucose, 20 HEPES), which additionally contains the cofactor coelenterazine (25 μM) and glutathione (4 mM), and the microtitre plate is then incubated for a further 3-4 hours. The test substances are then pipetted onto the microtitre plate, and 5 minutes after the transfer of the test substances into the wells of the microtitre plate the plate is transferred into the luminometer, a PAR1 agonist concentration which corresponds to EC50 is added and the resulting light signal is immediately measured in the luminometer. To distinguish an antagonist substance action from a toxic action, the endogenous purinergic receptor is immediately subsequently activated with agonist (ATP, final concentration 10 μM) and the resulting light signal is measured.

platelet-rich plasma = assay: Platelet aggregation in plasma (triggered by thrombin receptor agonist TRAP6, SFLLRN; turbidimetry according to Born); assay type: cell-based; conditions: 10 min, human platelet-rich plasma, 10 min at 37° C.
Protocol: 1.c) Platelet Aggregation in Plasma
Platelet aggregation is determined using blood from healthy volunteers of both genders, who had not received any thrombocyte aggregation-influencing medication for the last ten days. The blood is taken up into monovettes (Sarstedt, Nümbrecht, Germany) which contain, as anticoagulant, sodium citrate 3.8% (1 part citrate+9 parts blood). To obtain platelet-rich plasma, the citrated whole blood is centrifuged at 140 g for 20 min.
For the aggregation measurements, aliquots of the platelet-rich plasma with increasing concentrations of test substance are incubated at 37° C. for 10 min. Subsequently, aggregation is triggered by addition of a thrombin receptor agonist (TRAP6, SFLLRN) in an aggregometer and determined at 37° C. by means of the turbidimetry method according to Born (Born, G. V. R., Cross M. J., The Aggregation of Blood Platelets; J. Physiol. 1963, 168, 178-195). The SFLLRN concentration leading to maximum aggregation is, if appropriate, determined individually for each donor.
To calculate the inhibitory effect, the maximum increase in light transmission (amplitude of the aggregation curve in %) is determined within 5 minutes after addition of the agonist in the presence and absence of test substance, and the inhibition is calculated. The inhibition curves are used to calculate the concentration which inhibits aggregation by 50%.

IC50 [1] [nM] | IC50 (platelet-rich plasma) [nM] | Structure (SMILES)
43 |  | COCCc1noc(C2CC(c3ccc(OC(F)(F)F)cc3)CN(C(=O)N3CC[S+]([O-])CC3)C2)n1 (racemic) [Example 1, {3-[3-(2-Methoxyethyl)-1,2,4-oxadiazol-5-yl]-5-[4-(trifluoromethoxy)phenyl]piperidin-1-yl}-(oxidothiomorpholin-4-yl)methanone]
23 |  | O=C(N1CC[S+]([O-])CC1)N1CC(c2ccc(C(F)(F)F)cc2)CC(c2nc(C3CC3)no2)C1 (racemic) [Example 20, {3-(3-Cyclopropyl-1,2,4-oxadiazol-5-yl)-5-[4-(trifluoromethyl)phenyl]piperidin-1-yl}(1-oxidothio-morpholin-4-yl)methanone]
15.7 |  | COC1(c2noc(C3CC(c4ccc(CC(F)(F)F)cc4)CN(C(=O)N4CCS(=O)(=O)CC4)C3)n2)CC1 (racemic) [Example 61, (1,1-Dioxidothiomorpholin-4-yl){3-[3-(1-methoxycyclopropyl)-1,2,4-oxadiazol-5-yl]-5-[4-(2,2,2-trifluoroethyl)phenyl]piperidin-1-yl}methanone]
33 | 0.29 | COCCc1noc(C2CC(c3ccc(OC(F)(F)F)cc3)CN(C(=O)N3CCS(=O)(=O)CC3)C2)n1 (single isomer, unassigned) [Example 8, (1,1-Dioxidothiomorpholin-4-yl){3-[3-(2-methoxyethyl)-1,2,4-oxadiazol-5-yl]-5-[4-(trifluoromethoxy)phenyl]piperidin-1-yl}methanone]
8 | 0.49 | O=C(N1CCS(=O)(=O)CC1)N1CC(c2ccc(OC(F)(F)F)cc2)CC(c2nc(C3CC3)no2)C1 (single isomer, unassigned) [Example 10, {3-(3-Cyclopropyl-1,2,4-oxadiazol-5-yl)-5-[4-(trifluoromethoxy)phenyl]piperidin-1-yl}(1,1-dioxidothiomorpholin-4-yl)methanone]
5.1 |  | CCc1ccc(C2CC(c3nc(C4CC4)no3)CN(C(=O)N3CCS(=O)(=O)CC3)C2)cc1 (single isomer, unassigned) [Example 15, [3-(3-Cyclopropyl-1,2,4-oxadiazol-5-yl)-5-(4-ethylphenyl)piperidin-1-yl](1,1-dioxidothiomorpholin-4-yl)methanone]
32 |  | CCOCCc1noc(C2CC(c3ccc(C(F)(F)F)cc3)CN(C(=O)N3CCS(=O)(=O)CC3)C2)n1 (single isomer, unassigned) [Example 31, (1,1-Dioxidothiomorpholin-4-yl){3-[3-(2-ethoxyethyl)-1,2,4-oxadiazol-5-yl]-5-[4-(trifluoromethyl)phenyl]piperidin-1-yl}methanone]
4.7 | 0.58 | CC(F)(F)c1ccc(C2CC(c3nc(C4CC4)no3)CN(C(=O)N3CC[S+]([O-])CC3)C2)cc1 (single isomer, unassigned) [Example 52, {3-(3-Cyclopropyl-1,2,4-oxadiazol-5-yl)-5-[4-(1,1-difluoroethyl)phenyl]piperidin-1-yl}-(1-oxido-thiomorpholin-4-yl)methanone]
4.3 |  | CC(F)(F)c1ccc(C2CC(c3nc(C4CC4)no3)CN(C(=O)N3CCS(=O)(=O)CC3)C2)cc1 (single isomer, unassigned) [Example 54, {3-(3-Cyclopropyl-1,2,4-oxadiazol-5-yl)-5-[4-(1,1-difluoroethyl)phenyl]piperidin-1-yl}-(1,1-dioxidothiomorpholin-4-yl)methanone]
 | 0.17 | CCc1ccc(C2CC(c3nc(CCOC)no3)CN(C(=O)N3CCS(=O)(=O)CC3)C2)cc1 (stereo not shown) [Example 13, (1,1-Dioxidothiomorpholin-4-yl){3-(4-ethylphenyl)-5-[3-(2-methoxyethyl)-1,2,4-oxadiazol-5-yl]-piperidin-1-yl}methanone]
